± gives the expanded uncertainty stated by the source.
What was measured:
[1] = 101 kPa, Liquid; for viscosity: Capillary tube (Ostwald / Ubbelohde) method; for speed of sound: Cylindrical cavity resonance method
[2] = refractive index (Na D-line) (dimensionless); details: 101.33 kPa, Liquid, Standard Abbe refractometry
[3] = refractive index (Na D-line) (dimensionless); xn = mol fraction of the nth substance listed; details: 101 kPa, Liquid, Standard Abbe refractometry, x2 = 0
[4] = xn = mol fraction of the nth substance listed; details: 101 kPa, Liquid, x2 = 0; for viscosity: Capillary tube (Ostwald / Ubbelohde) method

Row | SMILES | mass density ([1]; 293 K) | viscosity ([1]; 293 K) | viscosity ([1]; 298 K) | viscosity ([1]; 303 K) | mass density ([1]; 313 K) | viscosity ([1]; 313 K) | speed of sound ([1]; 313 K) | viscosity ([1]; 323 K) | refractive index ([2]; 293 K) | refractive index ([2]; 298 K) | refractive index ([2]; 303 K) | refractive index ([2]; 313 K) | refractive index ([2]; 323 K) | further results
1 | CCN1CCCC1=O [1-ethyl-2-pyrrolidinone] | 1000.55 ± 1.8 kg/m3 | 2.133 ± 0.027 mPa·s | 2.022 ± 0.026 mPa·s | 1.832 ± 0.024 mPa·s | 983.26 ± 2 kg/m3 | 1.621 ± 0.021 mPa·s | 1435.3 ± 2.1 m/s | 1.358 ± 0.018 mPa·s | 1.46461 ± 0.00077 | 1.46192 ± 0.00087 | 1.45791 ± 0.00075 | 1.45415 ± 0.00064 | 1.45147 ± 0.00062 | speed of sound ([1]; 293 K): 1511.6 ± 2.1 m/s; mass density ([1]; 298 K): 996.24 ± 1.8 kg/m3; speed of sound ([1]; 298 K): 1492.5 ± 2.1 m/s; mass density ([1]; 303 K): 991.93 ± 1.9 kg/m3; speed of sound ([1]; 303 K): 1473.3 ± 2.1 m/s; mass density ([1]; 323 K): 974.56 ± 2.1 kg/m3; speed of sound ([1]; 323 K): 1398 ± 2.1 m/s
2 | O [water] | 998.26 ± 1.2 kg/m3 | 1.009 ± 0.01 mPa·s | 0.9029 ± 0.0094 mPa·s | 0.8133 ± 0.0084 mPa·s | 992.26 ± 1.3 kg/m3 | 0.6693 ± 0.007 mPa·s | 1529.1 ± 1.2 m/s | 0.5611 ± 0.0061 mPa·s | 1.33298 ± 0.00044 | 1.33251 ± 0.00045 | 1.33191 ± 0.00045 | 1.33061 ± 0.00046 | 1.32902 ± 0.00046 | –
3 | O [water] + CCN1CCCC1=O | – | – | – | – | – | – | – | – | – | – | – | – | – | refractive index ([3]; 293 K): 1.33298 ± 0.00044; refractive index ([3]; 298 K): 1.33251 ± 0.00045; refractive index ([3]; 303 K): 1.33191 ± 0.00045; refractive index ([3]; 313 K): 1.33061 ± 0.00046; refractive index ([3]; 323 K): 1.32902 ± 0.00046; viscosity ([4]; 293 K): 1.009 ± 0.01 mPa·s; mass density ([4]; 293 K): 998.26 ± 1.2 kg/m3; viscosity ([4]; 298 K): 0.9029 ± 0.0094 mPa·s; viscosity ([4]; 303 K): 0.8133 ± 0.0084 mPa·s; viscosity ([4]; 313 K): 0.6693 ± 0.007 mPa·s; speed of sound ([4]; 313 K, Cylindrical cavity resonance method): 1529.1 ± 1.2 m/s; mass density ([4]; 313 K): 992.26 ± 1.3 kg/m3; viscosity ([4]; 323 K): 0.5611 ± 0.0061 mPa·s

Source: the NIST ThermoML archive (doi:10.1021/je9003959)
